Reference: publication PMC12656546, “Enterohepatic Recirculation-Mediated Reabsorption of Aristolochic Acid I: Revealed by Toxicokinetics and Metabolite Identification in Rats” (Toxics, 2025)

Tests used:
[1] = Stability of AAI in rat plasma samples (QC samples); assay type: in vitro ADME; conditions: n = 3
Description: A full validation of the bioanalytical method for the quantitative analysis of AAI in rat plasma was performed in inherence to the ICH M10 guideline. Selectivity, accuracy and precision, matrix effects, calibration curve and range, dilution integrity and stability were fully validated. The analyzed QCs included a lower limit of quantitation (LLOQ) sample, low QC (LQC), medium QC (MQC) and high QC (HQC). QCs of four concentration levels (LLOQ: 1 ng/mL; LQC: 3 ng/mL; MQC: 400 ng/mL; HQC: 800 ng/mL) were prepared by spiking AAI with blank plasma collected from 6 rats.
Stability evaluation was carried out by analyzing LQCs and HQCs after storage under different conditions. Freeze–thaw stability was assessed after 3 cycles of freezing and thawing. Short-term stability was tested by keeping the LQCs and HQCs on the bench top at room temperature for the same duration as the study samples. Stability of the analyte in processed samples was tested by placing the processed samples in an autosampler for 16 h. Long-term stability was assessed by storing LQCs and HQCs at −20 °C for 15 days. The mean concentration at each QC level should be within ±15% of the nominal concentration.

[2] = Qualitative analysis of AAI and metabolites in bile of bile duct-cannulated rats; assay type: in vivo, F344 rats; conditions: 30 mg/kg AAI oral, bile collected 0–3 h, 3–6 h, 6–9 h, 9–12 h, qualitative UHPLC-Q-Exactive
Description: Ten 6-week-old F344 rats were divided into a control group (n = 2) and a treatment group (n = 8), with equal numbers of males and females in each group. During the experiment, rats were fasted and had access to water ad libitum. Rats in the control group were administered with 0.5% CMC-Na suspension via gastric gavage. For the treatment group, rats were administered with 30 mg/kg of AAI by the same route. Rats underwent bile duct cannulation for bile sample collection. Bile samples were collected at consecutive intervals of 0–3 h, 3–6 h, 6–9 h and 9–12 h after administration.
For each bile sample, a 200 μL aliquot of bile was mixed with an equal volume of a methanol/acetonitrile (1:1, v/v) solution. After vortexing for 2 min, the mixture was centrifuged at 13,200 rpm for 10 min. The precipitate was discarded, and the supernatant was dried under nitrogen gas. The dried residue was reconstituted in 80 μL of methanol, vortexed for 2 min, and centrifuged at 13,200 rpm for 15 min. The resulting supernatant was used for further analysis.
Ultra-high-performance liquid chromatography (UHPLC) coupled with a Q-Exactive orbitrap mass spectrometer (Thermo Fisher Scientific, San Jose, CA, USA) was used to analyzed the metabolites of AAI in rat bile. An ACQUITY UPLC BEH C18 column (2.1 mm × 50 mm, 1.7 μm, Waters, Milford, MA, USA) was employed for chromatographic separation. The mobile phase consisted of water containing 5 mmol/L ammonium formate/0.1% formic acid (A) and acetonitrile (B).
Metabolites in bile samples were analyzed using electrospray ionization (ESI) in both positive and negative ion modes. The spray voltage was set at 3500 V for positive mode and 3000 V for negative mode. The ion transfer tube temperature was maintained at 350 °C with a vaporizer temperature of 300 °C. The sheath gas and auxiliary gas flow rates were 35 Arb and 10 Arb. Full-scan MS data were acquired at a resolution of 35,000 within the mass range of m/z 100–1200. For MS/MS analysis, data-dependent acquisition (DDA) was performed at a resolution of 17,500 using high-energy collision dissociation (HCD). Post-acquisition data was imported into Compound Discoverer 2.1 software to identify AAI metabolites. Blank matrices were processed alongside samples to exclude the background interferences.

[3] = Freeze–thaw stability (3 cycles), rat plasma, nominal conc. 3 ng/mL
[4] = Freeze–thaw stability (3 cycles), rat plasma, nominal conc. 800 ng/mL
[5] = Long-term stability (−20 °C, 15 days), rat plasma, nominal conc. 3 ng/mL
[6] = Long-term stability (−20 °C, 15 days), rat plasma, nominal conc. 800 ng/mL
[7] = Post-processing stability (processed samples in autosampler 16 h), nominal conc. 3 ng/mL
[8] = Post-processing stability (processed samples in autosampler 16 h), nominal conc. 800 ng/mL
[9] = Short-term stability (bench top, room temperature), rat plasma, nominal conc. 3 ng/mL
[10] = Short-term stability (bench top, room temperature), rat plasma, nominal conc. 800 ng/mL

**Q.** Which results are given for `COc1cccc2c1cc([N+](=O)[O-])c1c(C(=O)O)cc3c(c12)OCO3` [AAI, Aristolochic acid I]?
**A.** Accuracy (%Dev) [1, 3]: 4.10 %Dev; Mean Calculated Conc. [1, 3]: 3.12 ng/mL; Accuracy (%Dev) [1, 4]: 1.30 %Dev; Mean Calculated Conc. [1, 4]: 810.42 ng/mL; Accuracy (%Dev) [1, 5]: 6.54 %Dev; Mean Calculated Conc. [1, 5]: 3.20 ng/mL; Accuracy (%Dev) [1, 6]: 4.71 %Dev; Mean Calculated Conc. [1, 6]: 837.66 ng/mL; Accuracy (%Dev) [1, 7]: −10.53 %Dev; Mean Calculated Conc. [1, 7]: 2.68 ng/mL; Accuracy (%Dev) [1, 8]: −11.83 %Dev; Mean Calculated Conc. [1, 8]: 705.33 ng/mL; Accuracy (%Dev) [1, 9]: 3.46 %Dev; Mean Calculated Conc. [1, 9]: 3.10 ng/mL; Accuracy (%Dev) [1, 10]: −2.99 %Dev; Mean Calculated Conc. [1, 10]: 776.07 ng/mL; detection in bile (biliary excretion) [2]: detected in bile collected during 0–3 h and 3–6 h intervals post-administration
